Source: PMC6616483, “Non-Pungent n-3 Polyunsaturated Fatty Acid (PUFA)-Derived Capsaicin Analogues as Potential Functional Ingredients with Antioxidant and Carbohydrate-Hydrolysing Enzyme Inhibitory Activities” (Antioxidants, 2019)
“And” between values parts separate entries of the source, which are not always exact repeats. Equal entries are not always repeated. Where two headings read alike, the source gives them in different places.

What was measured:
[1] = DPPH free radical scavenging assay; conditions: means ± S.D. (n = 3); NA: not active at maximum concentration tested; read-out: DPPH Test IC50
Procedure: The DPPH assay was performed according to a previously reported protocol. Absorbance was measured at 517 nm using a UV-Vis spectrophotometer (model V-550, Jasco, Milan, Italy). Ascorbic acid was used as positive control.

ABTS assay = conditions: means ± S.D. (n = 3); NA: not active at maximum concentration tested; read-out: ABTS Test IC50
Procedure: The ABTS assay was performed according to a previously reported protocol. Absorbance was measured at 734 nm using a UV-Vis spectrophotometer (model V-550, Jasco, Milan, Italy) Ascorbic acid was used as positive control.

[2] = Ferric reducing ability power (FRAP) test; conditions: means ± S.D. (n = 3)
Procedure: The FRAP test was performed following the protocol previously described. Absorbance was measured using a UV-Vis spectrophotometer (model V-550, Jasco, Milan, Italy) at 470 nm. FRAP value was expressed as mM Fe(II)/g. Butylated hydroxytoluene (BHT) was used as a positive control.

α-glucosidase = assay: α-Glucosidase inhibitory assay; assay type: biochemical; conditions: for Ki: calculated following the Cheng–Prusoff equation; for IC50 / α-Glucosidase IC50: means ± S.D. (n = 3)
Procedure: The α-glucosidase inhibitory assay was achieved following the procedure previously described. Absorbance was measured at 500 nm using a UV-Vis spectrophotometer (model V-550, Jasco, Milan, Italy). […] Ki value was calculated as previously described.

[3] = β-Carotene bleaching test
Procedure: The β-carotene bleaching test was performed as previously described. The absorbance of the samples, standard, and control was measured using a UV-Vis spectrophotometer (model V-550, Jasco, Milan, Italy) at 470 nm against a blank at t = 0 and successively at 30 and 60 min. Propyl gallate was used as positive control.

β-cells = tested on: β-cells; design: method as in PMID 31022842; conditions: cited from earlier work
type 1 diabetic rats = tested on: type 1 diabetic rats; design: method as in PMID 28230360; conditions: orally 6 mg/Kg for 28 days; cited from earlier work
healthy human subjects = tested on: healthy human subjects; design: method as in PMID 16612838; conditions: oral administration; cited from earlier work
α-amylase = molecular target: T1, α-amylase (Sus scrofa, UniProt P00690); assay: α-Amylase inhibitory assay; assay type: biochemical; conditions: means ± S.D. (n = 3)
T1 sequence (P00690 16-511): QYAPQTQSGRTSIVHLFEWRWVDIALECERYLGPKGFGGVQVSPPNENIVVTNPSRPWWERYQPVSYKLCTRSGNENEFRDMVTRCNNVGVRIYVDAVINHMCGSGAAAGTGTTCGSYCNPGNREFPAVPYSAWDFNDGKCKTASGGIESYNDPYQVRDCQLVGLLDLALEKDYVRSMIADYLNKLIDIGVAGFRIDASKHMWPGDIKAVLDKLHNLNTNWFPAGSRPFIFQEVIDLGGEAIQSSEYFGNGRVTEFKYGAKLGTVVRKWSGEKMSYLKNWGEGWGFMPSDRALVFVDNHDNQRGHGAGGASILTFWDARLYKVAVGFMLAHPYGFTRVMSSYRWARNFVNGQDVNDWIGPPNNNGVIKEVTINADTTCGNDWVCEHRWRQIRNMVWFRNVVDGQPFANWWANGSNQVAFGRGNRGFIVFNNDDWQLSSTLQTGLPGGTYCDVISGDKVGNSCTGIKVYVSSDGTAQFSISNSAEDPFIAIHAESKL
Procedure: The α-amylase inhibition assay was accomplished as previously described. Absorbance was measured at 540 nm using a UV-Vis spectrophotometer (model V-550, Jasco, Milan, Italy). […] Ki values were calculated following the Cheng–Prusoff equation [18].

[4] = read-out: β-Carotene Bleaching Test IC50 30 min, 30 min of incubation
[5] = read-out: β-Carotene Bleaching Test IC50 60 min, 60 min of incubation

Row | Structure (SMILES) | IC50 [1] [µM] | IC50 (ABTS assay) [µM] | FRAP Test [2] | Ki (α-glucosidase) [µM] | IC50 (α-glucosidase) | IC50 [3, 4] [µM] | IC50 [3, 5] [µM] | release of insulin compared to the control (β-cells; 15 min of incubation) | release of insulin compared to the control (β-cells; 120 min of incubation) | intestinal glucose absorption (type 1 diabetic rats) | plasma insulin concentrations after glucose loading (healthy human subjects) | α-Amylase IC50 (α-amylase) | α-Glucosidase IC50 (α-glucosidase)
1 | O=C1O[C@H]([C@@H](O)CO)C(O)=C1O [Ascorbic acid] | 23 ± 2 | 9.6 ± 0.9 | – | – | – | – | – | – | – | – | – | – | –
2 | Cc1cc(C(C)(C)C)c(O)c(C(C)(C)C)c1 [BHT, Butylated hydroxytoluene] | – | – | 63 ± 4 μM Fe(II)/g | – | – | – | – | – | – | – | – | – | –
3 | COc1cc(CNC(=O)CCCC/C=C/C(C)C)ccc1O [Capsaicin, capsaicin] | 0.6 | 0.3 | 30 ± 3 μM Fe(II)/g | 1 | 13 ± 1 µM | 10 ± 1 | 11 ± 1 | ineffective | ineffective | inhibited intestinal glucose absorption | did not significantly differ from the control group | – | –
4 | CC/C=C\C/C=C\C/C=C\C/C=C\C/C=C\C/C=C\CCC(=O)O [DHA, docosahexaenoic acid] | – | – | 9 ± 1 μM Fe(II)/g | 10 | 268 ± 9 µM | 70 ± 4 | 287 ± 10 | ineffective | ineffective | – | – | No significant carbohydrate-hydrolysing enzymes inhibition | No significant carbohydrate-hydrolysing enzymes inhibition
5 | CC/C=C\C/C=C\C/C=C\C/C=C\C/C=C\C/C=C\CCC(=O)NCc1ccc(O)c(OC)c1 [DHVA, N-docosahexaenoyl vanillylamine] | 0.8 | 0.3 | 18 ± 2 μM Fe(II)/g | 2 | 23.9 µM and 24 µM | 46 ± 3 | 56 ± 3 | ineffective | slight decrease | – | – | – | –
6 | CC/C=C\C/C=C\C/C=C\C/C=C\C/C=C\CCCC(=O)O [EPA, eicosapentaenoic acid] | – | – | 4.8 ± 0.8 μM Fe(II)/g | 10 | 250 ± 9 µM | 74 ± 5 | 310 ± 10 | ineffective | ineffective | – | – | No significant carbohydrate-hydrolysing enzymes inhibition | No significant carbohydrate-hydrolysing enzymes inhibition
7 | CC/C=C\C/C=C\C/C=C\C/C=C\C/C=C\CCCC(=O)NCc1ccc(O)c(OC)c1 [EPVA, N-eicosapentaenoyl vanillylamine] | 1 | 0.2 | 28 ± 2 μM Fe(II)/g | 2 | 23.6 µM and 24 µM | 9 ± 1 | 11 ± 1 | significant increase | significant increase | – | – | – | –
8 | CCCOC(=O)c1cc(O)c(O)c(O)c1 [Propyl gallate] | – | – | – | – | – | 0.4 | 0.4 | – | – | – | – | – | –
9 | COc1cc(COC(=O)CCCC/C=C/C(C)C)ccc1O [capsiate] | – | – | – | – | – | – | – | – | – | inhibited intestinal glucose absorption | – | – | –
